Some results are limits rather than exact numbers.

Sequence of CDK4/cyclin D1 (P11802 whole entry): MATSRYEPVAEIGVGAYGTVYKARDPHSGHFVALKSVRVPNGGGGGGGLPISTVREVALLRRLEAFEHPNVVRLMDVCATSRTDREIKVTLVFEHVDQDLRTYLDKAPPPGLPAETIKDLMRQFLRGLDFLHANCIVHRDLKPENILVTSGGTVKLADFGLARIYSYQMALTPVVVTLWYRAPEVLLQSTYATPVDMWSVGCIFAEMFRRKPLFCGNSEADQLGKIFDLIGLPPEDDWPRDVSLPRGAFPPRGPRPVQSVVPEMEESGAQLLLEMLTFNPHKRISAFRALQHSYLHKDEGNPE
Sequence of CDK4/cyclin D1 (P24385 whole entry partner): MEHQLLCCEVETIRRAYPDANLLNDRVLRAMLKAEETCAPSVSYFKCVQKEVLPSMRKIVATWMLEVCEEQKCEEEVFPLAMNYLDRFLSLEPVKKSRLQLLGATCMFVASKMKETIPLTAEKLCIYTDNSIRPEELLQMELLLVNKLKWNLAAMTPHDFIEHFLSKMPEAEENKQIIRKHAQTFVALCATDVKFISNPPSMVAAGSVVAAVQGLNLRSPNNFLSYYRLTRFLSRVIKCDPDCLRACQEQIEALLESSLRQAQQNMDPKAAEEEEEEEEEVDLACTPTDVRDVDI

One experiment concerns the target CDK4/cyclin D1 (Homo sapiens (Human), UniProt P11802). The experiment is described as follows: CDK4/cyclin D1 enzymatic activity assay (Protocol A, Lance TR-FRET). The class given is biochemical. The settings on record: CDK4/cyclin D1, 175 nM pRb152, 3 μM ATP, 60 min, room temperature; read-out: IC50 against CDK4 kinase. How it is done:
A 384-well microtiter Lance TR-FRET (time-resolved-fluorescence energy transfer) endpoint assay was used for CDK4/cyclin D1 kinase activity measurements. The same assay was used for IC50 determination of small molecule inhibitors. In general, the kinase reactions were carried out in 30 μL volumes in the reaction solution containing the following: 2 μL compound (in 20% DMSO), 18 uL CDK4/cyclin D1 in Assay Buffer (50 mM HEPES, pH 7.5, 5 mM MgCl2, 2 mM MnCl2, 1 mM DTT, 0.05% BSA, 0.02% Tween-20), 10 μL of the mixture of pRb152 and ATP. The final reaction mixture contains compound (inhibitor) with the concentration varying from […], 2% DMSO, 0.3 nM CDK4/cyclin D1, 175 nM pRb152, and 3 μM ATP (Amersham Pharmacia, Cat. No. 27-2056-01). All reactions were run at room temperature in 384-well white flat-bottom OptiPlates (Perkin Elmer, Cat. No. 6007290) for 60 min then were quenched by the addition of 10 μL of 120 mM EDTA. The signals were captured by the addition of 40 μL of the Detection Solution containing the following: Detection Buffer (50 mM HEPES, pH 7.5, 30 mM EDTA, 0.1% Triton x-100, 0.05% BSA), 70 ng/mL anti-phospho-pRb(S780) (Cell Signaling Technology, Cat. No. 9307S), 1 nM Lance Eu-W1024-Rabbit anti-IgG (Perkin Elmer, Cat. No. AD0082), and 20 nM SureLight™ Allophycocyanin-Streptavidin (Perkin Elmer, Cat. No. CR130-100). The resulted solutions were incubated at room temperature for 2 hours before read on the Evision Multilabel Reader (Perkin Elmer, Envision 2102-0010). Note: IC50<0.005 nM or IC50>10 μM indicates the true IC50 is out of detection range.
CDK4/cyclin D1 recombinant protein used in the enzymatic activity assay was prepared by coexpressing pDEST10-CDK4 (N-terminal His6) and pFastBacDual-GST-hCyclinD1 viruses in Sf21 cells. The overexpressed protein was purified by Ni-NTA affinity pull down to >80% pure by Sizing HPLC.
(Time-resolved FRET reads energy transfer from a long-lived donor to a nearby acceptor.)
A word on the IC50: it is the concentration at which inhibition is half-maximal. Turning to `COc1ccc(F)c(F)c1-c1cc(C(=O)c2nc3ccc(N4CCC(N(C)C)CC4)nc3[nH]2)ccn1` [Example 148, [5-(4-dimethylamino-piperidin-1-yl)-3H-imidazo[4,5-b]pyridin-2-yl]-[2-(2,3-difloro-6-methoxy-phenyl)-pyridin-4-yl]-methanone], the IC50 is 67 nM. Still for that read-out and setting: the figure for `CN(C)Cc1ccc2nc(C(=O)c3ccnc(-c4cncc5ccccc45)c3)[nH]c2c1` [Example 84, (6-Dimethylaminomethyl-1H-benzoimidazol-2-yl)-(2-isoquinolin-4-yl-pyridin-4-yl)-methanone] is 57 nM. The same measure, in the same setting: the figure for `O=C(c1ccnc(-c2cncc3ccccc23)c1)c1nc2ccc(S(=O)(=O)N3CCNCC3)cc2[nH]1` [Example 182, (2-Isoquinolin-4-yl-pyridin-4-yl)-[6-(piperazine-1-sulfonyl)-1H-benzoimidazol-2-yl]-methanone] is 77 nM.

Turning to `CN(C)C1CCN(c2ccc3nc(C(=O)c4ccc(C#N)c(-c5cncc6ccccc56)c4)[nH]c3n2)CC1` [Example 165, 4-[5-(4-Dimethylamino-piperidin-1-yl)-3H-imidazo[4,5-b]pyridine-2-carbonyl]-2-isoquinolin-4-yl-benzonitrile], the 50% inhibitory concentration (IC50) worked out at 3 nM. The same measure, in the same setting: the figure for `Cc1n[nH]c(C)c1-c1cc(C(=O)c2nc3ccc(N4CCC(N(C)C)CC4)nc3[nH]2)ccn1` [Example 167, [5-(4-Dimethylamino-piperidin-1-yl)-3H-imidazo[4,5-b]pyridine-2-yl]-[2-(3,5-dimethyl-1H-pyrazol-4-yl)-pyridin-4-yl]-methanone] is 195 nM.

On to `Cc1ncc2ccccc2c1-c1cc(C(=O)c2nc3cc(C(=O)N4CCNCC4)ccc3[nH]2)ccc1C#N` [Example 174, 2-(3-Methyl-isoquinolin-4-yl)-4-[5-(piperazine-1-carbonyl)-1H-benzoimidazole-2-carbonyl]-benzonitrile], for which the IC50 was 5 nM. The same measure, in the same setting: the figure for `COc1ccc(F)c(F)c1-c1cc(C(=O)c2nc3cc(N4CCC(N(C)C)CC4)ccc3[nH]2)ccn1` [Example 103, [2-(2,3-Difluoro-6-methoxy-phenyl)-pyridin-4-yl]-[5-(4-dimethylamino-piperidin-1-yl)-1H-benzoimidazol-2-yl]-methanone] is 60 nM. The same measure, in the same setting: the figure for `O=C(c1ccnc(-c2cncc3ccccc23)c1)c1nc2ccc(N3CCCNCC3)nc2[nH]1` [Example 163, (5-[1,4]Diazepan-1-yl-3H-imidazo[4,5-b]pyridine-2-yl)-(2-isoquinolin-4-yl-pyridin-4-yl)-methanone] is 14 nM; for `Cc1n[nH]c(C)c1-c1cc(C(=O)c2nc3ccc(N4CCCNCC4)nc3[nH]2)ccn1` [Example 170, (5-[1,4]Diazepan-1-yl-3H-imidazo[4,5-b]-pyridin-2-yl)-[2-(3,5-dimethyl-1H-pyrazol-4-yl)-pyridin-4-yl]-methanone] it is 548 nM.

The experiment is the same for the next values; noted with them: CDK4/cyclin D1, 175 nM pRb152, 3 μM ATP; bound stated; read-out: IC50 values against CDK4.
For the compound `Cc1nn(C)c(C)c1-c1cc(C(=O)c2nc3ccc(N4CC5(CNC5)C4)nc3[nH]2)ccc1C#N` [Example 207, 4-[5-(2,6-Diaza-spiro[3.3]hept-2-yl)-3H-imidazo[4,5-b]pyridine-2-carbonyl]-2-(1,3,5-trimethyl-1H-pyrazol-4-yl)-benzonitrile], the half-maximal inhibitory concentration (IC50) was less than 10000 nM. The same measure, in the same setting: the figure for `COc1ccc(F)c(F)c1-c1cc(C(=O)c2nc3cc(N4CCC(N(C)C)CC4)ccc3[nH]2)ccn1` [Example 103, [2-(2,3-Difluoro-6-methoxy-phenyl)-pyridin-4-yl]-[5-(4-dimethylamino-piperidin-1-yl)-1H-benzoimidazol-2-yl]-methanone] is less than 10000 nM; for `COc1cccc(F)c1-c1cc(C(=O)c2nc3ccc(N4CCC(N(C)C)CC4)cc3[nH]2)ccn1` [Example 50, [6-(4-Dimethylamino-piperidin-1-yl)-1H-benzoimidazol-2-yl]-[2-(2-fluoro-6-methoxy-phenyl)-pyridin-4-yl]-methanone] it is less than 10000 nM.

As for `COc1cccc(F)c1-c1cc(C(=O)c2nc3ccc(N4CCN(C)CC4)cc3[nH]2)ccn1` [Example 49, [2-(2-Fluoro-6-methoxy-phenyl)-pyridin-4-yl]-[6-(4-methyl-piperazin-1-yl)-1H-benzoimidazol-2-yl]-methanone], the half-inhibitory concentration (IC50) is less than 10000 nM.

The values are drawn from patent publication US8598217B2, “Imidazole derivatives and their use as modulators of cyclin dependent kinases” (Astex Therapeutics Ltd., priority 2009, dated 2013).
